Experiment [1] deals with TNFα. The experiment is described as follows: Cot Monocyte TNFα Cell Based Assay. The following applies: LPS-stimulated cryopreserved human monocytes, TNFα by TR-FRET. The procedure:
Example 23: Cot Monocyte TNFα Cell Based Assay
Cryopreserved human monocytes (Stem Cell Technologies) were thawed, diluted in RPMI with Glutamax (10 mM HEPES, 1× Pen-Strep, 55 μM β-mercaptoethanol, 1 mM Sodium pyruvate) media containing 10% FBS to 0.125×10^6 cells/ml and recovered at 37° C. for 2 hours. The cell suspension was then plated at a density of 5,000 cells/well onto black 384 well Greiner clear bottom plates. Plates were pre-spotted with test compounds and serially diluted in DMSO where 200 nL/well were delivered using the Echo 550 acoustic liquid dispenser (Labcyte®) for a final DMSO concentration of 0.5%. Plated cells were treated with compound for 1 hour at 37° C. Cells were then stimulated with 50 μg/ml of LPS (Sigma) excluding outside columns of plate used for unstimulated cell control wells. Cells were incubated for an additional 4 hours at 37° C. Cells were then spun out of the media and 5 μl of sample were taken and analyzed for total TNFα content using the TR-FRET Human TNFα detection system (CisBio). This system utilizes two labeled antibodies (cryptate and XL665) that bind to two different epitopes of the TNFα molecule and produce FRET signal proportional to the concentration of TNFα in the sample. Detection antibodies are mixed 50:50 and 5 μL were dispensed into each well. Plates were covered with clear seals and incubated at room temp overnight. The following morning plates were read using an Envision 2103 Multilabeled reader (PerkinElmer) with excitation/emission/FRET emission at 340 nm/615 nm/665 nm, respectively. Fluorescence intensities at 615 nm and 665 nm emission wavelengths were expressed as a ratio (665 nm/615 nm). Percent of control was calculated as follows: % Control=100×(RatioSample−Ratio0% stimulation)/(Ratio100% Stimulation−Ratio0% Stimulation) where unstimulated cells (0% stimulation) were the negative control and stimulated cells (100% stimulation) were used as the positive control.

The target of experiment [2] is Human Cot (Homo sapiens (Human), UniProt P41279). The experiment is described as follows: High Throughput Cot Biochemical Assay (KinEASE TR-FRET). To be noted: recombinant human Cot catalytic domain, 400 μM ATP. As for the experimental part:
Example 24: High Throughput Cot Biochemical Assay
Human Cot enzyme activity was measured using KinEASE (Cisbio), a time-resolved fluorescence resonance energy transfer (TR-FRET) immunoassay. In this assay, Cot-catalyzes the phosporylation of a XL665-labeled peptide substrate. Europium conjugated […] specific antibody binds the resulting phosphorylated peptide. Formation of phosphorylated peptide is quantified by TR-FRET with Europium as the donor and XL665 the acceptor in a 2-step endpoint assay. Purified recombinant human Cot catalytic domain (30-397 amino acids) was purchased from Carna Biosciences. In brief, test compounds serially diluted in DMSO were delivered into Proxy white, low volume, 384 well plates using the Echo 550 acoustic liquid dispenser (Labcyte®). Cot enzyme and substrates were dispensed into assay plates using a Multi-Flo (Bio-Tek Instruments). The standard 5 μL reaction mixture contained 400 μM ATP, 1 μM STK3 peptide, 5 nM of Cot in reaction buffer (10 mM MOPS, pH 7.0, 0.02% NaN3, 0.5 mg/mL BSA, 10 mM MgOAc, 1 mM DTT, 0.025% NP-40, 1.5% glycerol) and 0.1% DMSO. After 2.5 hrs of incubation at room temperature, 5 μL of Stop and Detect Solution (1:200 Europium Cryptate labeled anti-phosphorylated peptide antibody solution and 125 nM strepavidin-XL665 Tracer in a 50 mM Hepes pH 7.0 detection buffer containing sufficient EDTA) was added. The plate was then further incubated for 120 minutes at room temperature and read using an Envision 2103 Multilabeled reader (PerkinElmer) with excitation/emission/FRET emission at 340 nm/615 nm/665 nm, respectively. Fluorescence intensities at 615 nm and 665 nm emission wavelengths were expressed as a ratio (665 nm/615 nm).

Sequence of Human Cot (P41279 30-397): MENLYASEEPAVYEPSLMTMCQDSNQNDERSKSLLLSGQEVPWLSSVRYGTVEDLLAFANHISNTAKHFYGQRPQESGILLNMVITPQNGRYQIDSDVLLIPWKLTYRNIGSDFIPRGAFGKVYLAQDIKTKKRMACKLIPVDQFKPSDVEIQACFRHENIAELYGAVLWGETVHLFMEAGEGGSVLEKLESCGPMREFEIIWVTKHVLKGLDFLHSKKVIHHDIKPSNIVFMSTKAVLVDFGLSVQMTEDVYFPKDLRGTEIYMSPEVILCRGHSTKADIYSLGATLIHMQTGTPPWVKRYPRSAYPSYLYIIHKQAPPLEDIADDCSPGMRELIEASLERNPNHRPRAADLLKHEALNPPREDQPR

The compound `[2H][C@](Nc1cc(Br)c2ncnc(NCC(C)(C)C)c2c1)(c1ccc(F)cc1)c1cn(C2CC2)nn1` [I-15, (S)-8-bromo-N6-((1-cyclopropyl-1H-1,2,3-triazol-4-yl)(4-fluorophenyl)methyl-d)-N4-neopentylquinazoline-4,6-diamine] had an EC50 in experiment [1] of 82 nM. In addition, the IC50 in experiment [2] stood at 2.6 nM.

For the compound `[2H][C@](Nc1cc(Cl)c2ncnc(NCC(C)(C)C)c2c1)(c1ccc(F)cc1)c1cn(C2(CF)CC2)nn1` [I-16, (S)-8-chloro-N^6-((1-(1-(fluoromethyl)cyclopropyl)-1H-1,2,3-triazol-4-yl)(4-fluorophenyl)methyl-d)-N^4-neopentylquinazoline-4,6-diamine], in experiment [1], the EC50 turned out to be 46 nM. Besides, the IC50 in experiment [2] amounted to 3.1 nM.

In turn, `CC(C)(C)CNc1ncnc2c(C#N)cc(N[C@H](c3cn(C4(C(F)(F)F)CC4)nn3)c3cccc4ncsc34)cc12` [I-17, (S)-6-((benzo[d]thiazol-7-yl(1-(1-(trifluoromethyl)cyclopropyl)-1H-1,2,3-triazol-4-yl)methyl)amino)-4-(neopentylamino) quinazoline-8-carbonitrile] yielded an EC50 in experiment [1] of 59 nM. In addition, the IC50 in experiment [2] is 3.3 nM.

Regarding `CC(C)(C)CNc1ncnc2c(Br)cc(N[C@H](c3cn(C4(C(F)(F)F)CC4)nn3)c3cccc4ncsc34)cc12` [I-18, (S)-N^6-(benzo[d]thiazol-7-yl(1-(1-(trifluoromethyl)cyclopropyl)-1H-1,2,3-triazol-4-yl)methyl)-8-bromo-N^4-neopentylquinazoline-4,6-diamine], in experiment [1], the response was half-maximal at 195 nM (EC50). Also, the IC50 in experiment [2] came out at 8 nM.

In experiment [1], `[2H][C@@](Nc1cc(C#N)c2ncnc(NCC(C)(C)C)c2c1)(c1cn(C2CC2)nn1)c1ccccc1Cl` [I-19, (S)-6-(((2-chlorophenyl)(1-cyclopropyl-1H-1,2,3-triazol-4-yl)methyl-d)amino)-4-(neopentylamino) quinazoline-8-carbonitrile] displayed an EC50 of 20 nM. In experiment [2], the IC50 came to 2.4 nM.

On to `[2H][C@@](Nc1cc(C#N)c2ncnc(NCC(C)(C)C)c2c1)(c1cn(C2(C#N)CC2)nn1)c1ccccc1Cl` [I-20, (S)-6-(((2-chlorophenyl)(1-(1-cyanocyclopropyl)-1H-1,2,3-triazol-4-yl)methyl-d)amino)-4-(neopentylamino) quinazoline-8-carbonitrile], for which the midpoint of the response in experiment [1], the EC50, lay at 35 nM. In addition, in experiment [2], the IC50 was 3.3 nM.

Compound `Cc1nc(F)ccc1[C@H](Nc1cc(Cl)c2ncnc(NCC(C)(C)C)c2c1)c1cn(C2(C(F)F)CC2)nn1` [I-21, (S)-8-chloro-N^6-((1-(1-(difluoromethyl)cyclopropyl)-1H-1,2,3-triazol-4-yl)(6-fluoro-2-melhylpyridin-3-yl)methyl)-N^4-neopentylquinazoline-4,6-diamine] had an EC50 in experiment [1] of 28 nM. For the same compound, in experiment [2], the IC50 worked out at 1.9 nM.

On to `Cc1nc(F)ccc1[C@H](Nc1cc(C#N)c2ncnc(NCC(C)(C)C)c2c1)c1cn(C2(C(F)F)CC2)nn1` [I-22, (S)-6-(((1-(1-(difluoromethyl)cyclopropyl)-1H-1,2,3-triazol-4-yl)(6-fluoro-2-methylpyridin-3-yl)methyl)amino)-4-(neopentylamino) quinazoline-8-carbonitrile], for which, in experiment [1], the EC50 turned out to be 36 nM. In addition, the IC50 in experiment [2] is 1.7 nM.

For the compound `Cn1ccc2c([C@H](Nc3cc(C#N)c4ncnc(NCC(C)(C)C)c4c3)c3cn(C4(C(F)F)CC4)nn3)cccc2c1=O` [I-24, (S)-6-(((1-(1-(difluoromethyl)cyclopropyl)-1H-1,2,3-triazol-4-yl)(2-methyl-1-oxo-1,2-dihydroisoquinolin-5-yl)methyl)amino)-4-(neopentylamino) quinazoline-8-carbonitrile], in experiment [1], a half-maximal response (EC50) required 11.3 nM. Besides, the IC50 in experiment [2] came out at 1.2 nM.

With `Cn1ccc2c([C@H](Nc3cc(Cl)c4ncnc(NCC(C)(C)C)c4c3)c3cn(C4(C(F)F)CC4)nn3)cccc2c1=O` [I-25, (S)-5-(((8-chloro-4-(neopentylamino)quinazolin-6-yl)amino)(1-(1-(difluoromethyl)cyclopropyl)-1H-1,2,3-triazol-4-yl)methyl)-2-methylisoquinolin-1(2H)-one], the EC50 in experiment [1] is 25.5 nM. For the same compound, the IC50 in experiment [2] was found to be 2.4 nM.

The compound `Cn1ccc2c([C@H](Nc3cc(Cl)c4ncnc(NCC(C)(C)C)c4c3)c3cn(C45CC(C4)C5)nn3)cccc2c1=O` [I-27, (S)-5-((1-(bicyclo[1.1.1]pentan-1-yl)-1H-1,2,3-triazol-4-yl)((8-chloro-4-(neopentylamino)quinazolin-6-yl)amino)methyl)-2-methylisoquinolin-1(2H)-one] had an EC50 in experiment [1] of 12.1 nM. In experiment [2], the concentration for half-maximal inhibition (IC50) is 1.7 nM.

`CCN1CCC(n2cc([C@@H](Nc3cc(Cl)c4ncnc(Nc5ccc(F)c(Cl)c5)c4c3)c3ccccc3)nn2)CC1` [II-4, (S)-8-chloro-N^4-(3-chloro-4-fluorophenyl)-N^6-((1-(1-ethylpiperidin-4-yl)-1H-1,2,3-triazol-4-yl)(phenyl)methyl) quinazoline-4,6-diamine] returned a 50% effective concentration (EC50) in experiment [1] of 254 nM. Also, the IC50 in experiment [2] came out at 5.9 nM.

In experiment [1], `Fc1ccc(Nc2ncnc3ccc(N[C@@H](c4ccc(Cl)cc4)c4cn(C5CCN(C6COC6)CC5)nn4)cc23)cc1Cl` [II-8, (S)-N4-(3-chloro-4-fluorophenyl)-N6-((4-chlorophenyl)(1-(1-(oxetan-3-yl)piperidin-4-yl)-1H-1,2,3-triazol-4-yl)methyl) quinazoline-4,6-diamine] showed an EC50 of 1240 nM. For the same compound, in experiment [2], the IC50 was 318 nM.

Take `Fc1ccc(Nc2ncnc3c(Cl)cc(N[C@@H](c4ccccc4)c4cn(C5CCNCC5)nn4)cc23)cc1Cl` [II-9, (S)-8-chloro-N4-(3-chloro-4-fluorophenyl)-N6-(phenyl(1-(piperidin-4-yl)-1H-1,2,3-triazol-4-yl)methyl) quinazoline-4,6-diamine]: the concentration giving a half-maximal response (EC50) in experiment [1] came out at 337 nM. In experiment [2], the IC50 is 8.3 nM.

In the case of `CCN1CCC(n2cc([C@@H](Nc3cc(Cl)c4ncnc(Nc5ccc(F)c(Cl)c5)c4c3)c3ccc(Cl)cc3)nn2)CC1` [II-10, (S)-8-chloro-N^4-(3-chloro-4-fluorophenyl)-N^6-((4-chlorophenyl)(1-(1-ethylpiperidin-4-yl)-1H-1,2,3-triazol-4-yl)methyl) quinazoline-4,6-diamine], the EC50 in experiment [1] was 527 nM. In addition, the IC50 in experiment [2] was 17 nM.

Compound `[2H][C@](Nc1ccc2ncnc(Nc3cnc(F)c(F)c3)c2c1)(c1ccc(F)cc1)c1cn(C2CC2)nn1` [II-11, (S)-N^6-((1-cyclopropyl-1H-1,2,3-triazol-4-yl)(4-fluorophenyl)methyl-d)-N^4-(5,6-difluoropyridin-3-yl)quinazoline-4,6-diamine] yielded an EC50 in experiment [1] of 645 nM. The IC50 in experiment [2] turned out to be 74 nM.
